Assay results: US7192746B2, “α-Isomaltosyltransferase, process for producing the same and use thereof” (Kabushiki Kaisha Hayashibara Seibutsu Kagaku Kenkyujo, priority 2000, dated 2007)

Assays:
Format in all cases: biochemical
[1] = tested on: α-isomaltosyl-transferring enzyme from Bacillus globisporus N75; assay: Specificity to transferring acceptor; settings: panose as saccharide donor, 10 units/g substrate, 3.2% (w/v), 30° C., pH 6.0, 24 hours
Summary of the method: (§1)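 Each candidate acceptor was mixed with panose donor at equal concentration, then given 10 units/g substrate of enzyme (purified, or partially purified for strain A19) at 3.2% (w/v) total saccharide. Reactions ran 24 hours at 30° C., pH 6.0, and were scored for presence or absence of transfer product.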

[2] = tested on: α-isomaltosyl-transferring enzyme from Bacillus globisporus C11; assay: Specificity to transferring acceptor; settings: panose as saccharide donor, 10 units/g substrate, 3.2% (w/v), 30° C., pH 6.0, 24 hours
Summary of the method: as §1

[3] = tested on: α-isomaltosyl-transferring enzyme from Arthrobacter globiformis A19; assay: Specificity to transferring acceptor; settings: partially purified enzyme, panose as saccharide donor, 10 units/g substrate, 3.2% (w/v), 30° C., pH 6.0, 24 hours
Summary of the method: as §1

[4] = tested on: α-isomaltosyl-transferring enzyme from Bacillus globisporus C9; assay: Specificity to transferring acceptor; settings: panose as saccharide donor, 10 units/g substrate, 3.2% (w/v), 30° C., pH 6.0, 24 hours
Summary of the method: as §1

[5] = tested on: α-isomaltosyl-transferring enzyme from Arthrobacter ramosus S1; assay: Specificity to transferring acceptor; settings: panose as saccharide donor, 10 units/g substrate, 3.2% (w/v), 30° C., pH 6.0, 24 hours
Summary of the method: as §1

[6] = tested on: α-isomaltosyl-transferring enzyme from Bacillus globisporus N75; assay: Action on saccharides (substrates, TLC); parameters: key: −: there was found no substrate change before and after the enzymatic reaction; +: there were found both the reduction of substrate and the formation of cyclotetrasaccharide after the enzymatic reaction; settings: 2 units/g substrate, 2% (w/v) substrate, 30° C., pH 6.0, 24 hours
Description: (§2) To examine the saccharides in the supernatant, they were separated from the supernatant by silica gel thin-layer chromatography (abbreviated as “TLC” hereinafter) using, as a developer, a mixture solution of n-butanol, pyridine, and water (=6:4:1), and, as a thin-layer plate, “[…] 60”, an aluminum plate (20×20 cm) for TLC commercialized by […]. The coloration of both the separated total sugars by the sulfuric acid-methanol method and the reducing saccharides by the diphenylamine-aniline method detected a non-reducing saccharide at a position with an Rf value of about 0.31, which was positive on the former detection method but negative on the latter detection method.
(§3) It was tested whether saccharides can be used as substrates for the α-isomaltosyl-transferring enzyme. For the purpose, a solution of maltose, maltotriose, maltotetraose, maltopentaose, maltohexaose, maltoheptaose, isomaltose, isomaltotriose, panose, isomaltosylmaltose, isopanose, α,α-trehalose, kojibiose, nigerose, α,β-trehalose, cellobiose, gentibiose, maltitol, maltotriitol, lactose, sucrose, α-cyclodextrin, β-cyclodextrin, γ-cyclodextrin, soluble starch, pullulan, or dextran was prepared. To each of the above solutions was added two units/g substrate of a purified specimen of either α-isomaltosyl-transferring enzyme from Bacillus globisporus C9 obtained by the method in Experiment 4, Bacillus globisporus C11 obtained by the method in Experiment 7, Bacillus globisporus N75 obtained by the method in Experiment 11, or Arthrobacter ramosus S1 obtained by the method in Experiment 15, or a partially purified α-isomaltosyl-transferring enzyme from Arthrobacter globiformis A19 obtained by the method in Experiment 15. The resulting each solution was adjusted to give a substrate concentration of 2% (w/v) and incubated at 30° C. and pH 6.0 for 24 hours. The enzyme solutions before and after the enzymatic reactions were respectively analyzed on TLC as disclosed in Experiment 1 to confirm whether the enzymes acted on these substrates.

[7] = tested on: α-isomaltosyl-transferring enzyme from Bacillus globisporus C11; assay: Action on saccharides (substrates, TLC); parameters: key: −: there was found no substrate change before and after the enzymatic reaction; +: there were found both the reduction of substrate and the formation of cyclotetrasaccharide after the enzymatic reaction; settings: 2 units/g substrate, 2% (w/v) substrate, 30° C., pH 6.0, 24 hours
Description: as §2, §3

[8] = tested on: α-isomaltosyl-transferring enzyme from Arthrobacter globiformis A19; assay: Action on saccharides (substrates, TLC); parameters: key: −: there was found no substrate change before and after the enzymatic reaction; +: there were found both the reduction of substrate and the formation of cyclotetrasaccharide after the enzymatic reaction; settings: partially purified enzyme, 2 units/g substrate, 2% (w/v) substrate, 30° C., pH 6.0, 24 hours
Description: as §2, §3

[9] = tested on: α-isomaltosyl-transferring enzyme from Bacillus globisporus C9; assay: Action on saccharides (substrates, TLC); parameters: key: −: there was found no substrate change before and after the enzymatic reaction; +: there were found both the reduction of substrate and the formation of cyclotetrasaccharide after the enzymatic reaction; settings: 2 units/g substrate, 2% (w/v) substrate, 30° C., pH 6.0, 24 hours
Description: as §2, §3

[10] = tested on: α-isomaltosyl-transferring enzyme from Arthrobacter ramosus S1; assay: Action on saccharides (substrates, TLC); parameters: key: −: there was found no substrate change before and after the enzymatic reaction; +: there were found both the reduction of substrate and the formation of cyclotetrasaccharide after the enzymatic reaction; settings: 2 units/g substrate, 2% (w/v) substrate, 30° C., pH 6.0, 24 hours
Description: as §2, §3

SMILES	Product of transferring reaction, Enzyme of Strain N75 [1]	Product of transferring reaction, Enzyme of Strain C11 [2]	Product of transferring reaction, Enzyme of Stain A19 [3]	Product of transferring reaction, Enzyme of Strain C9 [4]	Product of transferring reaction, Enzyme of Strain S1 [5]	Enzymatic action for forming cyclotetrasaccharide, Enzyme of Strain N75 [6]	Enzymatic action for forming cyclotetrasaccharide, Enzyme of Strain C11 [7]	Enzymatic action for forming cyclotetrasaccharide, Enzyme of Strain A19 [8]	Enzymatic action for forming cyclotetrasaccharide, Enzyme of Strain C9 [9]	Enzymatic action for forming cyclotetrasaccharide, Enzyme of Strain S1 [10]
OC[C@H]1O[C@@H](O[C@H]2[C@H](O)[C@@H](O)C(O)O[C@@H]2CO)[C@H](O)[C@@H](O)[C@H]1O (some centres unmarked) [Lactose, lactose]	+ (a saccharide-transferred product was formed in an amount of over one percent but below 10% to the total sugars)	+ (a saccharide-transferred product was formed in an amount of over one percent but below 10% to the total sugars)	+ (a saccharide-transferred product was formed in an amount of over one percent but below 10% to the total sugars)	+ (a saccharide-transferred product was formed in an amount of over one percent but below 10% to the total sugars)	+ (a saccharide-transferred product was formed in an amount of over one percent but below 10% to the total sugars)	−	−	−	−	−
OC[C@H]1O[C@H](O[C@H]2[C@H](O)[C@@H](O)[C@H](O)O[C@@H]2CO)[C@H](O)[C@@H](O)[C@@H]1O [Maltose, maltose]	+ (a saccharide-transferred product was formed in an amount of over one percent but below 10% to the total sugars)	+ (a saccharide-transferred product was formed in an amount of over one percent but below 10% to the total sugars)	+ (a saccharide-transferred product was formed in an amount of over one percent but below 10% to the total sugars)	+ (a saccharide-transferred product was formed in an amount of over one percent but below 10% to the total sugars)	+ (a saccharide-transferred product was formed in an amount of over one percent but below 10% to the total sugars)	−	−	−	−	−
OC[C@H]1O[C@H](O[C@H]2[C@H](O)[C@@H](O)[C@@H](O[C@H]3[C@H](O)[C@@H](O)[C@@H](O[C@H]4[C@H](O)[C@@H](O)C(O)O[C@@H]4CO)O[C@@H]3CO)O[C@@H]2CO)[C@H](O)[C@@H](O)[C@@H]1O (some centres unmarked) [Maltotetraose, maltotetraose]	+ (a saccharide-transferred product was formed in an amount of over one percent but below 10% to the total sugars)	+ (a saccharide-transferred product was formed in an amount of over one percent but below 10% to the total sugars)	+ (a saccharide-transferred product was formed in an amount of over one percent but below 10% to the total sugars)	+ (a saccharide-transferred product was formed in an amount of over one percent but below 10% to the total sugars)	+ (a saccharide-transferred product was formed in an amount of over one percent but below 10% to the total sugars)	−	−	−	−	−
OC[C@@H](O)[C@@H](O[C@H]1O[C@H](CO)[C@@H](O[C@H]2O[C@H](CO)[C@@H](O)[C@H](O)[C@H]2O)[C@H](O)[C@H]1O)[C@H](O)[C@@H](O)CO [Maltotriitol, maltotriitol]	+ (a saccharide-transferred product was formed in an amount of over one percent but below 10% to the total sugars)	+ (a saccharide-transferred product was formed in an amount of over one percent but below 10% to the total sugars)	+ (a saccharide-transferred product was formed in an amount of over one percent but below 10% to the total sugars)	+ (a saccharide-transferred product was formed in an amount of over one percent but below 10% to the total sugars)	+ (a saccharide-transferred product was formed in an amount of over one percent but below 10% to the total sugars)	−	−	−	−	−
OC[C@H]1O[C@H](O[C@H]2[C@H](O)[C@@H](CO)OC(O)[C@@H]2O)[C@H](O)[C@@H](O)[C@@H]1O (some centres unmarked) [Nigerose, nigerose]	+ (a saccharide-transferred product was formed in an amount of over one percent but below 10% to the total sugars)	+ (a saccharide-transferred product was formed in an amount of over one percent but below 10% to the total sugars)	+ (a saccharide-transferred product was formed in an amount of over one percent but below 10% to the total sugars)	+ (a saccharide-transferred product was formed in an amount of over one percent but below 10% to the total sugars)	+ (a saccharide-transferred product was formed in an amount of over one percent but below 10% to the total sugars)	−	−	−	−	−
